Experimental data published in patent US7919504B2, “Thiadiazole modulators of PKB” (Amgen Inc., priority 2007, dated 2011).

Biological target: T1, PKBα (Homo sapiens, UniProt P31749)
T1 construct: the full length PKBα and a kinase domain of PKBα with pleckstrin domain (amino acids 1-117) deleted
Experiment: PKB kinase assay (P33-labeled ATP, synthetic peptide substrate, filter plate capture)
Format: biochemical
Conditions: with respect to PKBα
Text: The kinase assay for evaluating PKB activity comprises active PKB enzymes, a PKB specific substrate, and P^33-labeled ATP. Two form of PKBα enzymes were used, the full length PKBα and a kinase domain of PKBα with pleckstrin domain (amino acids 1-117) deleted. Both PKB enzymes were obtained from Upstate cell signaling solutions (Cat. #14-276 and 14-341). The PKB substrate used is a synthetic peptide (ARKRERTYSFGHHA (SEQ ID NO: 1)) as described in Obata et al., J. Biol. Chem. 275 (46), 36108-36115 (2000). The phosphorylated substrate was captured by a phosphocellulose membrane filter plate (MILLIPORE) and measured by a Wallac Microbeta liquid scintillation counter (Perkin Elmer). Table 1 provides the IC50 values obtained for each of the examples with respect to PKBα.

T1 sequence (P31749 118-480 limits assumed): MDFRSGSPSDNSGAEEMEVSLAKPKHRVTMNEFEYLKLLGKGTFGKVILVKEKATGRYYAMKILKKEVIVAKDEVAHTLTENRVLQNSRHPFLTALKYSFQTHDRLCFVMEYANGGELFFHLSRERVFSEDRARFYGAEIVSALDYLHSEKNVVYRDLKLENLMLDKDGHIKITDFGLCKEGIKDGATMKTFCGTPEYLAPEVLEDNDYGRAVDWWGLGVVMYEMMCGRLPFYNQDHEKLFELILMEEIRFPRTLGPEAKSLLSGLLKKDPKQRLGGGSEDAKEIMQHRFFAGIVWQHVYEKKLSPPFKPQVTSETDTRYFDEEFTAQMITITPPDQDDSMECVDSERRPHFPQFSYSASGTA

Structure (SMILES) | IC50 [nM]
CC(Nc1nnc(-c2ccc3cnccc3c2)s1)c1ccco1 (racemic) [Example 22, (±)-N-(1-(Furan-2-yl)ethyl)-5-(isoquinolin-6-yl)-1,3,4-thiadiazol-2-amine] | 1000 to 10000
CCC(O)CNc1nnc(-c2ccc3cnccc3c2)s1 (racemic) [Example 23, (±)-1-(5-(Isoquinolin-6-yl)-1,3,4-thiadiazol-2-ylamino)butan-2-ol] | 1000 to 10000
Oc1cccc(C(O)CNc2nnc(-c3ccc4cnccc4c3)s2)c1 (racemic) [Example 24, (±)-3-(1-Hydroxy-2-(5-(isoquinolin-6-yl)-1,3,4-thiadiazol-2-ylamino)ethyl)phenol] | 1000 to 10000
O=C(Nc1nnc(-c2ccc3cnccc3c2)s1)[C@@H]1NCC[C@@H]1c1ccccc1 (racemic) [Example 26, (±)-cis-N-(5-(Isoquinolin-6-yl)-1,3,4-thiadiazol-2-yl)-3-phenylpyrrolidine-2-carboxamide] | 50 to 1000
OC(CNc1nnc(-c2ccc3cnccc3c2)s1)Cc1ccccc1 (racemic) [Example 29, (±)-1-(5-(isoquinolin-6-yl)-1,3,4-thiadiazol-2-ylamino)-3-phenylpropan-2-ol] | 50 to 1000
OC(CNc1nnc(-c2ccc3cnccc3c2)s1)Cc1ccc(C(F)(F)F)cc1 (racemic) [Example 30, (±)-1-(5-(Isoquinolin-6-yl)-1,3,4-thiadiazol-2-ylamino)-3-(4-(trifluoromethyl)phenyl)propan-2-ol] | 50 to 1000
c1ccc([C@@H]2CCN[C@@H]2CNc2nnc(-c3ccc4cnccc4c3)s2)cc1 (racemic) [Example 33, Racemic mixture of 5-(isoquinolin-6-yl)-N-(((2S,3S)-3-phenylpyrrolidin-2-yl)methyl)-1,3,4-thiadiazol-2-amine and 5-(isoquinolin-6-yl)-N-(((2R,3R)-3-phenylpyrrolidin-2-yl)methyl)-1,3,4-thiadiazol-2-amine] | 50 to 1000
NC(CNc1nnc(-c2cccc3cnncc23)s1)Cc1ccc(C(F)(F)F)cc1 (stereo in doubt) [Example 28, N-((S)-2-amino-3-(4-(trifluoromethyl)phenyl)propyl)-5-(phthalazin-5-yl)-1,3,4-thiadiazol-2-amine] | 1000 to 10000
Cn1c(=O)[nH]c2ccc(-c3nnc(NC[C@@H](N)Cc4ccc(C(F)(F)F)cc4)s3)cc21 [Example 1, 6-(5-((S)-2-Amino-3-(4-(trifluoromethyl)phenyl)propylamino)-1,3,4-thiadiazol-2-yl)-1-methyl-1H-benzo[d]imidazol-2(3H)-one] | < 50
N[C@H](CNc1nnc(-c2ccc3c(c2)CC(=O)N3)s1)Cc1ccc(C(F)(F)F)cc1 [Example 2, 5-(5-((S)-2-amino-3-(4-(trifluoromethyl)phenyl)propylamino)-1,3,4-thiadiazol-2-yl)indolin-2-one] | < 50
N[C@H](CNc1nnc(-c2cc3c(cc2F)NC(=O)C3)s1)Cc1ccc(C(F)(F)F)cc1 [Example 3, 5-(5-((S)-2-Amino-3-(4-(trifluoromethyl)phenyl)propylamino)-1,3,4-thiadiazol-2-yl)-6-fluoroindolin-2-one] | 50 to 1000
CC(F)(F)c1ccc(C[C@H](N)CNc2nnc(-c3ccc4c(c3)CC(=O)N4)s2)cc1 [Example 4, 5-(5-((S)-2-Amino-3-(4-(1,1-difluoroethyl)phenyl)propylamino)-1,3,4-thiadiazol-2-yl)indolin-2-one] | < 50
CC(C)n1c(=O)[nH]c2ccc(-c3nnc(NC[C@@H](N)Cc4ccc(C(F)(F)F)cc4)s3)cc21 [Example 5, 6-(5-((S)-2-Amino-3-(4-(trifluoromethyl)phenyl)propylamino)-1,3,4-thiadiazol-2-yl)-1-isopropyl-1H-benzo[d]imidazol-2(3H)-one] | 1000 to 10000
CC(C)=C1C(=O)Nc2ccc(-c3nnc(NC[C@@H](N)Cc4ccc(C(F)(F)F)cc4)s3)cc21 [Example 6, 5-(5-((S)-2-Amino-3-(4-(trifluoromethyl)phenyl)propylamino)-1,3,4-thiadiazol-2-yl)-3-(propan-2-ylidene)indolin-2-one] | 1000 to 10000
C[C@@H](c1ccc(C(F)(F)F)cc1)[C@H](N)CNc1nnc(-c2ccc3c(c2)CC(=O)N3)s1 [Example 7, 5-(5-((2S,3S)-2-Amino-3-(4-(trifluoromethyl)phenyl)butylamino)-1,3,4-thiadiazol-2-yl)indolin-2-one] | < 50
N[C@H](CNc1nnc(-c2cc3c(Cl)cncc3s2)s1)Cc1cccc(C(F)(F)F)c1 [Example 8, N-((S)-2-amino-3-(3-(trifluoromethyl)phenyl)propyl)-5-(4-chlorothieno[2,3-c]pyridin-2-yl)-1,3,4-thiadiazol-2-amine] | 50 to 1000
N[C@H](CNc1nnc(-c2cc3c(Cl)cncc3s2)s1)Cc1ccc(C(F)(F)F)cc1 [Example 9, N-((S)-2-amino-3-(4-(trifluoromethyl)phenyl)propyl)-5-(4-chlorothieno[2,3-c]pyridin-2-yl)-1,3,4-thiadiazol-2-amine] | 50 to 1000
N[C@H](CNc1nnc(-c2cc3ccncc3s2)s1)Cc1ccc(C(F)(F)F)cc1 [Example 10, N-((S)-2-Amino-3-(4-(trifluoromethyl)phenyl)propyl)-5-(thieno[2,3-c]pyridin-2-yl)-1,3,4-thiadiazol-2-amine] | < 50
N[C@H](CNc1nnc(-c2ccc3[nH]c(=O)oc3c2)s1)Cc1ccc(C(F)(F)F)cc1 [Example 11, 6-(5-((S)-2-Amino-3-(4-(trifluoromethyl)phenyl)propylamino)-1,3,4-thiadiazol-2-yl)benzo[d]oxazol-2(3H)-one] | < 50
N[C@H](CNc1nnc(-c2cc3c(Cl)cncc3s2)s1)Cc1ccccc1 [Example 12, N-((S)-2-Amino-3-phenylpropyl)-5-(4-chlorothieno[2,3-c]pyridin-2-yl)-1,3,4-thiadiazol-2-amine] | 50 to 1000
Cc1cccc(C[C@H](N)CNc2nnc(-c3cc4c(Cl)cncc4s3)s2)c1 [Example 13, N-((S)-2-Amino-3-m-tolylpropyl)-5-(4-chlorothieno[2,3-c]pyridin-2-yl)-1,3,4-thiadiazol-2-amine] | 50 to 1000
N[C@H](CNc1nnc(-c2cc3c(Cl)cncc3s2)s1)Cc1cc(F)cc(F)c1 [Example 14, N-((S)-2-Amino-3-(3,5-difluorophenyl)propyl)-5-(4-chlorothieno[2,3-c]pyridin-2-yl)-1,3,4-thiadiazol-2-amine] | 50 to 1000
CC1(C)C2CC[C@H](CNc3nnc(-c4ccc5cnccc5c4)s3)C1C2 (stereo partly drawn) [Example 15, N-(((2S)-6,6-Dimethylbicyclo[3.1.1]heptan-2-yl)methyl)-5-(isoquinolin-6-yl)-1,3,4-thiadiazol-2-amine] | 50 to 1000
OC[C@H](Nc1nnc(-c2ccc3cnccc3c2)s1)[C@@H](O)c1ccccc1 [Example 16, (1S,2S)-2-(5-(Isoquinolin-6-yl)-1,3,4-thiadiazol-2-ylamino)-1-phenylpropane-1,3-diol] | 1000 to 10000
O[C@@H]1CCCC[C@H]1CNc1nnc(-c2ccc3cnccc3c2)s1 [Example 17, (1R,2S)-2-((5-(Isoquinolin-6-yl)-1,3,4-thiadiazol-2-ylamino)methyl)cyclohexanol] | 50 to 1000
c1ccc2[nH]c(CNc3nnc(-c4ccc5cnccc5c4)s3)nc2c1 [Example 18, N-((1H-Benzo[d]imidazol-2-yl)methyl)-5-(isoquinolin-6-yl)-1,3,4-thiadiazol-2-amine] | 1000 to 10000
